Columns and labels:
AQ STING (G230A-R293Q) = target: T1, AQ STING (G230A-R293Q) (Homo sapiens, UniProt Q86WV6, G230A/H232R/R293Q); experiment: Differential Scanning Fluorimetry with AQ STING; format: binding; conditions: thermal shift vs STING apoprotein; 150 μM CDN; 0.1 mg/ml truncated human AQ STING; SYPRO Orange; read-out: DSF ΔTm (° C.) AQ STING
T1 construct: truncated human WT STING or AQ STING (amino acid residues 140-343); 8xHis (N, cleaved yes); SUMO (N, cleaved yes); made in house; host or cells: E. coli Rosetta-gami B (DE3)
Procedure: (§1) WT STING and AQ STING Proteins
(§2) Purified PCR products were cleaved with restriction enzymes BamHI (cat. #R0136S, NEB, Ipswich, USA) and NotI (cat. #R0189S, NEB, Ipswich, USA) and cloned into the pSUMO vector linearized with the identical enzymes.
(§3) The resin was poured into a chromatography column, washed with 50 ml buffer A (50 mmol·l^−1 TrisCl (pH 8.0), 800 mmol·l^−1 NaCl, 3 mmol·l^−1 β-mercaptol; 10% glycerol; 20 mmol·l^−1 imidazole) and 8-His-SUMO tagged STING proteins were eluted with 15 ml buffer A containing 300 mmol·l^−1 imidazole. […] Proteins were concentrated with Amicon® Ultra-15 10 K device (cat. #UFC901008, Merck Millipore, Billerica, USA) and flash frozen in liquid N2.
(§4) Differential Scanning Fluorimetry with WT STING and AQ STING
(§5) 20 μL solutions of the reaction mixtures were pipetted in triplicates into 96 well optical reaction plates and thermal denaturation of samples were performed on real time PCR cycler (LightCycler® 480 Instrument II—Roche, Basel, Switzerland). The first derivative of the thermal denaturation curves was performed to calculate denaturing temperatures of STING—CDN complexes and STING apoproteins. The thermal shift for each CDN was calculated by subtracting the average denaturing temperature of STING apoprotein from the average denaturing temperature of STING CDN complex.

WT STING [1] = target: T2, WT STING (Homo sapiens, UniProt Q86WV6, H232R); experiment: Digitonin assay using 293T wtSTING-FL reporter cells; format: cell-based; conditions: 293T wtSTING-FL cells; 30 minutes in Digitonin buffer, then 5 hours; ISRE firefly luciferase reporter; 8-point dose-response curve; read-out: Digitonin assay EC50 (μmol · l^−1) WT STING
From the text: ISRE Reporter Plasmid (pGL64.27-4xISRE)
Two complementary oligonucleotides of the sequence […] […] […] […] […] The oligonucleotides were mixed in equal molar amounts, hybridized, and cleaved by restriction endonucleases HindIII (cat. #. R0104S, NEB, Ipswich, USA) and BglII (cat. #R0144S, NEB, Ipswich, USA). Ultimately, they were ligated into plasmid pGL4.27 (cat. #E6651, Promega, Madison, USA) linearized with the same enzymes. As result the sequence with four ISRE sites was placed upstream of the minimum promoter of firefly luciferase reporter gene.
After 5 minutes incubation at room temperature (RT), 250 μL of the mixture was added dropwise to the cells in one well. Cells were incubated 36 hours at 37° C. with 5% CO2, and then detached with 0.05% Trypsin and 0.22 g/L EDTA (both cat. #L0941, Biowest, Riverside, USA).
Transfected cells were seeded onto poly-D-lysine coated six well plates at density 50,000 cells per 1 cm^2 in DMEM medium with high glucose containing 10% heat inactivated FBS, 30 g/mL blasticidin (cat. #ant-bl-05, InvivoGen, San Diego, USA), 0.06 mg/ml Penicillin G and 0.1 mg/ml Streptomycin Sulfate (both cat. #. L0018, Biowest, Riverside, USA). The medium was replenished every 3-4 days until visible colonies of cells resistant to blasticidin were formed.
Blasticidin resistant cells stably expressing WT STING were further transfected with […] plasmid following the same procedure as described above. […] Homogeneous culture of stably double transfected cells was prepared by limiting dilution of cells in 96 well plates and wells with cells were selected that originated from a single cell.
The medium was removed next day and three fold serial dilutions of compounds in Digitonin buffer containing 50 mmol·l^−1 HEPES (cat. #H3375, Sigma Aldrich, Czech Republic) pH 7.0, 100 mmol·l^−1 KCl, 3 mmol·l^−1 MgCl2, 0.1 mmol·l^−1 DTT (cat. #D0632, Sigma Aldrich, Czech Republic), 85 mmol·l^−1 Sucrose (cat. #S7903, Sigma Aldrich, Czech Republic), 0.2% BSA (cat. #A2153, Sigma Aldrich, Czech Republic), 1 mmol·l^−1 ATP (cat. #A1852, Sigma Aldrich, Czech Republic), 0.1 mmol·l^−1 GTP (cat. #G8877, Sigma Aldrich, Czech Republic), and 10 μg/mL Digitonin A (cat. #D141, Sigma Aldrich, Czech Republic) were added to the cells. The buffer was removed after 30 minutes incubation at 37° C. with 5% CO2, the cells were washed once with 100 μl of cultivation medium, and 100 μl of medium was added to each well. The plates with cells were incubated for 5 hours at 37° C. with 5% CO2, 50 μl of the medium was removed and 30 μl of ONE-Glo™ Luciferase Assay System reagent (cat. #E6120, Promega, Madison, USA) was added to each well. Luminescence was read on Synergy H1 (Biotek, Winooski, USA).
Target sequence in this assay (Q86WV6 whole entry H232R): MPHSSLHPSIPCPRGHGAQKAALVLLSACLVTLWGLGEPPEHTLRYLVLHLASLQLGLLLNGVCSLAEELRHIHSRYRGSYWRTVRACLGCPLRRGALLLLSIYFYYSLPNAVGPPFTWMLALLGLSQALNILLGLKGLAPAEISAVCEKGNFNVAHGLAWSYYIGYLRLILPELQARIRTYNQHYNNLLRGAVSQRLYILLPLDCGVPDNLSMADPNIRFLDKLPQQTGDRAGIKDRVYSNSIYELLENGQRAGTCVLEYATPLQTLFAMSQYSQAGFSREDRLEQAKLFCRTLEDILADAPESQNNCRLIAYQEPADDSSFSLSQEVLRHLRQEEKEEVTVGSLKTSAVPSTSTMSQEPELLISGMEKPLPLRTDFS

WT STING [2] = target: T2, WT STING; experiment: Differential Scanning Fluorimetry with WT STING; format: binding; design: truncated human WT STING or AQ STING (amino acid residues 140-343); 8xHis (N, cleaved yes); SUMO (N, cleaved yes); made in house; host or cells: E. coli Rosetta-gami B (DE3); conditions: thermal shift vs STING apoprotein; 150 μM CDN; 0.1 mg/ml truncated human WT STING; SYPRO Orange; read-out: DSF ΔTm (° C.) WT STING
Procedure: as §1, §2, §3, §4, §5
Target sequence in this assay (Q86WV6 140-343 H232R): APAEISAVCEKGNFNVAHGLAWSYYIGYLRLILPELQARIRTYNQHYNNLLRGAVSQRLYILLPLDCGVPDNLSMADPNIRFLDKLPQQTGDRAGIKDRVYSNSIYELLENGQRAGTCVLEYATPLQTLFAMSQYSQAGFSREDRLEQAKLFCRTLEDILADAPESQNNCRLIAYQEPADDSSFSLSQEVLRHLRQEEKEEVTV

T1 sequence (Q86WV6 140-343 G230A/H232R/R293Q): as the sequence (Q86WV6 140-343 H232R) above, with G91A, R154Q counted along it

Structure (SMILES) | ΔTm at 150 µM (AQ STING (G230A-R293Q)) [°C] | EC50 (WT STING [1]) [nM] | ΔTm at 150 µM (WT STING [2]) [°C]
Nc1nc(N)c2ncn([C@@H]3O[C@@H]4COP(=O)(O)O[C@@H]5[C@H](O)[C@@H](OCP(=O)(O)O[C@H]4[C@H]3O)O[C@H]5n3cnc4c(=O)[nH]c(N)nc43)c2n1 [Compound 50, (1R,6R,8R,9R,10S,15R,17R,18S)-17-(2-amino-6-oxo-6,9-dihydro-1H-purin-9-yl)-8-(2,6-diamino-9H-purin-9-yl)-3,9,12,18-tetrahydroxy-2,4,7,11,14,16-hexaoxa-3λ^5,12λ^5-diphosphatricyclo[13.2.1.0^6,10]octadecane-3,12-dione] | 17.5 | 20 | 11.9
Nc1nc2c(ncn2[C@@H]2O[C@@H]3OCP(=O)(O)O[C@H]4[C@H](O)[C@H](n5cnc6c(N)nc(F)nc65)O[C@@H]4COP(=O)(O)O[C@@H]2[C@@H]3O)c(=O)[nH]1 [Compound 52, (1R,6R,8R,9S,10S,15R,17R,18S)-8-(6-amino-2-fluoro-9H-purin-9-yl)-17-(2-amino-6-oxo-6,9-dihydro-1H-purin-9-yl)-3,9,12,18-tetrahydroxy-2,4,7,11,14,16-hexaoxa-3λ^5,12λ^5-diphosphatricyclo[13.2.1.0^6,10]octadecane-3,12-dione] | 20.1 | 30 | 13.9
C#Cc1cn([C@@H]2O[C@@H]3COP(=O)(O)O[C@@H]4[C@H](O)[C@@H](OCP(=O)(O)O[C@H]3[C@H]2O)O[C@H]4n2cnc3c(=O)[nH]c(N)nc32)c2ncnc(N)c12 [Compound 53, (1R,6R,8R,9R,10S,15R,17R,18S)-8-{4-amino-5-ethynyl-7H-pyrrolo[2,3-d]pyrimidin-7-yl}-17-(2-amino-6-oxo-6,9-dihydro-1H-purin-9-yl)-3,9,12,18-tetrahydroxy-2,4,7,11,14,16-hexaoxa-3λ^5,12λ^5-diphosphatricyclo[13.2.1.0^6,10]octadecane-3,12-dione] | 12.9 | 40 | 6.6

Now those with a lower EC50 (WT STING [1]), led by results:

ΔTm at 150 µM (AQ STING (G230A-R293Q)) [°C] | EC50 (WT STING [1]) [nM] | ΔTm at 150 µM (WT STING [2]) [°C] | Structure (SMILES)
19.9 | 12 | 13 | Nc1nc2c(ncn2[C@@H]2O[C@@H]3OCP(=O)(O)O[C@H]4[C@@H](F)[C@H](n5cnc6c(N)nc(F)nc65)O[C@@H]4COP(=O)(O)O[C@@H]2[C@@H]3O)c(=O)[nH]1 [Compound 54, (1R,6R,8R,9R,10R,15R,17R,18S)-8-(6-amino-2-fluoro-9H-purin-9-yl)-17-(2-amino-6-oxo-6,9-dihydro-1H-purin-9-yl)-9-fluoro-3,12,18-trihydroxy-2,4,7,11,14,16-hexaoxa-3λ^5,12λ^5-diphosphatricyclo[13.2.1.0^6,10]octadecane-3,12-dione]
15.9 | 10 | 8.6 | CSc1ncnc2c1ncn2[C@@H]1O[C@@H]2COP(=O)(O)O[C@@H]3[C@H](O)[C@@H](OCP(=O)(O)O[C@H]2[C@H]1O)O[C@H]3n1cnc2c(=O)[nH]c(N)nc21 [Compound 51, (1R,6R,8R,9R,10S,15R,17R,18S)-17-(2-amino-6-oxo-6,9-dihydro-1H-purin-9-yl)-3,9,12,18-tetrahydroxy-8-[6-(methylsulfanyl)-9H-purin-9-yl]-2,4,7,11,14,16-hexaoxa-3λ^5,12λ^5-diphosphatricyclo[13.2.1.0^6,10]octadecane-3,12-dione]
22.9 | 10 | 15.2 | Nc1nc2c(ncn2[C@@H]2O[C@@H]3OCP(=O)(O)O[C@H]4C[C@H](n5cnc6c(N)ncnc65)O[C@@H]4COP(=O)(O)O[C@@H]2[C@@H]3O)c(=O)[nH]1 [Compound 55, (1R,6R,8R,10S,15R,17R,18S)-17-(2-amino-6-oxo-6,9-dihydro-1H-purin-9-yl)-8-(6-amino-9H-purin-9-yl)-3,12,18-trihydroxy-2,4,7,11,14,16-hexaoxa-3λ^5,12λ^5-diphosphatricyclo[13.2.1.0^6,10]octadecane-3,12-dione]
